Measurements: patent US10639287B2, “Compounds for the treatment of mitochondrial diseases” (UNIVERSITE PARIS-SUD, priority 2014, dated 2020)

Assays:
[1] = tested on: homozygous TB2143 nematodes (polg-1(ok1548Δ/Δ)); experiment: Gonad and/or intestinal extrusion (premature death) of homozygous nematodes; format: in vivo, Caenorhabditis elegans; details: 50 μM, until 7th day of adulthood
Description: Ten homozygous TB2143 larvae (polg-1(ok1548Δ/Δ)) at stage L4 were deposited on each NGM dish containing either DMSO or 50 μM clofilium tosylate (three dishes for each treatment group) and incubated at 20° C. Their survival was monitored until the 7th day of adulthood. The number of dead animals, not responding to any stimulation, and having intestinal and/or gonad extrusion was counted. The few animals that died of dehydration at the edge of the petri dishes were excluded from the analysis.

[2] = tested on: fibroblasts from a patient with a mutation on each allele of the POLG gene; experiment: Amount of mtDNA (qPCR) in patient fibroblasts, quiescent conditions; format: cell-based, human
Description: Skin fibroblasts from the control and from the patient were cultured to 100% confluence in DMEM at 37° C. under 5% CO2. At 100% confluence, the fibroblasts were washed with PBS and the quiescent medium was added (4.5 g/L D-glucose, 110 mg/L sodium pyruvate, 0.1% foetal bovine serum, 1% penicillin/streptomycin from the stock solution containing 10,000 I.U. penicillin and 10,000 μg/mL streptomycin). After four days in quiescent medium, […] or DMSO (0.1%) was added to the culture medium. The treatment was carried out for 18 days, changing the culture medium with or without clofilium tosylate every three days. […] The mtDNA and nuclear DNA were quantified by qPCR (Sarzi, E., Bourdon, A., Chrétien, D., Zarhrate, M., Corcos, J., Slama, A., Cormier-Daire, V., De Lonlay, P., Munnich, A. and Rötig, A. (2007) Mitochondrial DNA Depletion is a Prevalent Cause of Multiple Respiratory Chain Deficiency in Childhood. J Pediatr, 105, 531-534).
Skin fibroblasts from the patient were cultured to 100% confluence in DMEM at 37° C. under 5% CO2. […] The mtDNA and nuclear DNA were quantified by qPCR (Sarzi, E., Bourdon, A., Chrétien, D., Zarhrate, M., Corcos, J., Slama, A., Cormier-Daire, V., De Lonlay, P., Munnich, A. and Rötig, A. (2007) Mitochondrial DNA Depletion is a Prevalent Cause of Multiple Respiratory Chain Deficiency in Childhood. J Pediatr, 105, 531-534).

[3] = tested on: homozygous TB2143 nematodes (polg-1(ok1548Δ/Δ)); experiment: Amount of mtDNA of homozygous nematodes depleted of mtDNA; format: in vivo, Caenorhabditis elegans
Description: Ten homozygous or wild-type TB2143 larvae (polg-1(ok1548Δ/Δ)) at stage L4 were deposited on each NGM dish containing either DMSO or 50 μM clofilium tosylate (three dishes for each treatment group). They were incubated at 20° C. until the 6th day of adulthood. Extraction of the total nematode DNAs was performed with the Nucleospin Kit Tissue kit (Macherey Nagel). The quantifications of mtDNA and nuclear DNA were performed as described in Addo et al., 2010 (Addo, M. G., Cossard, R., Pichard, D., Obiri-Danso, K., Rötig, A. and Delahodde, A. (2010) Caenorhabditis elegans, a pluricellular model organism to screen new genes involved in mitochondrial genome maintenance. BBA-Mol. Basis Dis., 1802, 765-773).

MIP1 yeast mutants = experiment: Fidelity of Mip1 polymerase: frequency of cells resistant to erythromycin (Ery^R); format: cell-based, Saccharomyces cerevisiae; details: 32 μM vs DMSO
Text: A disruption of the fidelity of the Mip1 mitochondrial polymerase can be evaluated by measuring the frequency of cells resistant to erythromycin (Ery^R). The Ery^R mutations are caused by mutations in the 21S mitochondrial ribosomal RNA encoded by mtDNA that may occur after incorporation of a bad nucleotide (Baruffini, E., Lodi, T., Dallabona, C., Puglisi, A., Zeviani, M. and Ferrero, I. (2006) Genetic and Chemical rescue of the Saccharomyces cerevisiae phenotype induced by mitochondrial DNA polymerase mutations associated with progressive external ophthalmoplegia in humans. Hum. Mol. Genet., 15, 2846-2855). Measuring the resistance to erythromycin is one way to directly measure the point mutations of mtDNA.
Independent colonies were seeded in 10 mL of minimal medium (SC-TRP, 2% glucose) in the presence of 32 μM clofilium tosylate or DMSO to stationary phase. […] The mutation frequency was calculated as the number of Ery^R colonies among the total number of colonies (Baruffini, E., Lodi, T., Dallabona, C., Puglisi, A., Zeviani, M. and Ferrero, I. (2006) Genetic and Chemical rescue of the Saccharomyces cerevisiae phenotype induced by mitochondrial DNA polymerase mutations associated with progressive external ophthalmoplegia in humans. Hum. Mol. Genet., 15, 2846-2855).

[4] = tested on: homozygous TB2143 nematodes (polg-1(Δ/Δ)); experiment: Number of laid and hatched eggs of homozygous nematodes; format: in vivo, Caenorhabditis elegans; details: 50 μM vs DMSO
Description: Four homozygous TB2143 larvae (polg-1(ok1548Δ/Δ)) at stage L4 were deposited on each NGM dish containing either DMSO or 50 μM clofilium tosylate (three dishes for each treatment group). They were incubated at 20° C. to adulthood stage. The adults were moved every 9 to 12 hours, over 6 to 7 days, to new dishes containing DMSO or 50 μM clofilium tosylate until there were no eggs in the uterus, and the number of laid eggs was counted. Each laying process was monitored until the following day in order to count the hatching.

CCCCCCC[N+](CC)(CC)CCCCc1ccc(Cl)cc1.Cc1ccc(S(=O)(=O)[O-])cc1 [clofilium tosylate]
premature death by gonad and/or intestinal extrusion [1]: reduced | amount of mtDNA, quiescent conditions ([2]; Example 14, 18-day treatment): increased | amount of mtDNA, quiescent conditions, dose-response ([2]; Example 25, concentrations of 0.5 μM and 1 μM, 18-day treatment): increased | amount of mtDNA of homozygous TB2143 nematodes ([3]; 50 μM vs DMSO): Clofilium tosylate increased the amount of mtDNA of homozygous TB2143 nematodes (polg-1(ok1548Δ/Δ)) depleted of mtDNA. | mtDNA/nuDNA ([3]; polg-1(ok1548Δ/Δ), 50 μM, 6th day of adulthood): 69.2 | fidelity of the different MIP1 yeast mutants (Ery^R frequency) (MIP1 yeast mutants): no effect | hatching of embryos [4]: increased | number of laid eggs [4]: increased
